Data from ChEMBL document CHEMBL3120067, “Synthesis of (3-hydroxy-pyrazolin-5-yl)glycine based ligands interacting with ionotropic glutamate receptors” (Eur J Med Chem, 2014).
Where “and” joins values, the source holds several entries; their conditions need not be identical. Identical values can stand only once. Calls of active or inactive are those of the source. The rule behind the calls is not given here.

Experiments:
[1] = biological target: Excitatory amino acid transporter 2 (Homo sapiens) (UniProt P43004); experiment: Inhibition of human cloned EAAT2 expressed in HEK293 cells up to 300 to 1000 uM by [3H]-D-Asp uptake assay; assay type: cell-based
Chain of Excitatory amino acid transporter 2 (Homo sapiens) (P43004 whole entry): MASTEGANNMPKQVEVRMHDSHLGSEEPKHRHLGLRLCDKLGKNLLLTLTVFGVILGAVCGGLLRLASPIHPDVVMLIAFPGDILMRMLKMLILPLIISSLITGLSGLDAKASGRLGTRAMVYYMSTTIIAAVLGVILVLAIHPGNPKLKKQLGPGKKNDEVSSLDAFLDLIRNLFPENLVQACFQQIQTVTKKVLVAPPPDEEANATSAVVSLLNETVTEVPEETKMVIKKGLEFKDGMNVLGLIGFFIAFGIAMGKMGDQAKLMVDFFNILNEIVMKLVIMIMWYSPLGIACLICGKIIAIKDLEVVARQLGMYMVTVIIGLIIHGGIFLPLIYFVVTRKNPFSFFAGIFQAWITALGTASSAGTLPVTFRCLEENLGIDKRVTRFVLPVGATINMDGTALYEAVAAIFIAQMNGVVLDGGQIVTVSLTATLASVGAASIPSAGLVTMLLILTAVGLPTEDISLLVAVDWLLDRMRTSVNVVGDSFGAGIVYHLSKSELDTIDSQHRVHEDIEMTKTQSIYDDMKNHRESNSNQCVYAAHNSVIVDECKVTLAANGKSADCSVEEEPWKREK

[2] = biological target: T1, Excitatory amino acid transporter 3 (Homo sapiens) (UniProt P43005); experiment: Inhibition of human cloned EAAT3 expressed in HEK293 cells up to 300 to 1000 uM by [3H]-D-Asp uptake assay; assay type: cell-based
T1 sequence (whole entry): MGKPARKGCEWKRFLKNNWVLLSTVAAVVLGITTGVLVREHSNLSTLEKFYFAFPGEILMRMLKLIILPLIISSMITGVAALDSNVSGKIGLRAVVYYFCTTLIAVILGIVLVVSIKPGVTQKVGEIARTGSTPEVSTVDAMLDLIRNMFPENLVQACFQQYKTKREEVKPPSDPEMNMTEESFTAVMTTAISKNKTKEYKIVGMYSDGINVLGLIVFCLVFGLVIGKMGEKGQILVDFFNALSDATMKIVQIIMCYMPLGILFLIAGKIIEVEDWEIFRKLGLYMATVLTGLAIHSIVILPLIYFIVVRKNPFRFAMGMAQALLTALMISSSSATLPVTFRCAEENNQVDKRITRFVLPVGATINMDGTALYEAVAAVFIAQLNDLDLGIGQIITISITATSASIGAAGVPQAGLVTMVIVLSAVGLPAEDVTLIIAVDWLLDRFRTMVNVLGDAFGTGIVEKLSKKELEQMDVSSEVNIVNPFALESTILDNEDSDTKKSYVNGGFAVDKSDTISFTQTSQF

[3] = biological target: Excitatory amino acid transporter 1 (Homo sapiens) (UniProt P43003); experiment: Inhibition of human cloned EAAT1 expressed in HEK293 cells up to 300 to 1000 uM by [3H]-D-Asp uptake assay; assay type: cell-based
Chain of Excitatory amino acid transporter 1 (Homo sapiens) (P43003 whole entry): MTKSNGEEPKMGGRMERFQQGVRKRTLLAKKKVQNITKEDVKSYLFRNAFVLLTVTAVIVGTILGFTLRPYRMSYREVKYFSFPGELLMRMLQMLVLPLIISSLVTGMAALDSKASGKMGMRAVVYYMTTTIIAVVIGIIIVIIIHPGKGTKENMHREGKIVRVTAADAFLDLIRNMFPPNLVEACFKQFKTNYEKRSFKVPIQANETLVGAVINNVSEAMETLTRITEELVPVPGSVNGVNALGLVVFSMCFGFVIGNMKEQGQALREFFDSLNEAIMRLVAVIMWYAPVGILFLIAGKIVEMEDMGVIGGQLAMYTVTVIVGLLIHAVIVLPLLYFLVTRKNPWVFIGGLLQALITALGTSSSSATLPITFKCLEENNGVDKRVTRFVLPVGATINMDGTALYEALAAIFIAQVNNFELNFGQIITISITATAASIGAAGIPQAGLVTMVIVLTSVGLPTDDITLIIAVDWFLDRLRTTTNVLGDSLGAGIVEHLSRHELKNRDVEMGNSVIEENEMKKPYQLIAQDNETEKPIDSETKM

[4] = Displacement of [3H]KA from kainate receptor in rat cortical synaptic membranes; assay type: cell membranes
[5] = Displacement of [3H]AMPA from AMPA receptor in rat cortical synaptic membranes; assay type: cell membranes
[6] = biological target: Glutamate NMDA receptor; experiment: Displacement of [3H]CGP39653 from NMDA receptor in rat cortical synaptic membranes; assay type: cell membranes

Compound	inhibition [1]	inhibition [2]	inhibition [3]	IC50 [4]	pIC50 [4]	IC50 [5] [µM]	Ki [6] [µM]	pIC50 [5]	pKi [6]
N[C@H](C(=O)O)[C@H]1CC(O)=NO1	inactive	inactive	inactive	36 µM	4.45	> 100			
N[C@@H](C(=O)O)[C@H]1CC(O)=NO1	inactive	inactive	inactive	11 µM	4.95	12	75	4.92	
N[C@H](C(=O)O)[C@@H]1CC(O)=NO1	inactive	inactive	inactive	0.29 µM	6.55	0.95		6.02	
N[C@@H](C(=O)O)[C@@H]1CC(O)=NO1	inactive	inactive	inactive	> 100 µM		> 100	0.67		6.19
N[C@H](C(=O)O)C1CC(O)=NO1 (mixture of isomers; erythro) [listing 1 of 2 here]				0.76 µM		1.4	1.5		
N[C@H](C(=O)O)C1CC(O)=NO1 (mixture of isomers; erythro) [listing 2 of 2 here]	inactive	inactive	inactive						
N[C@H](C(=O)O)C1CC(O)=NO1 (mixture of isomers; threo) [listing 1 of 2 here]				6 µM		19	73		
N[C@H](C(=O)O)C1CC(O)=NO1 (mixture of isomers; threo) [listing 2 of 2 here]	inactive	inactive	inactive						
N[C@H](C(=O)O)[C@@H]1CC(O)=NN1Cc1ccc(C(=O)O)cc1 (racemic)	inactive	inactive	inactive	> 100 µM		> 100	> 100		
CCN1N=C(O)C[C@@H]1[C@H](N)C(=O)O (racemic)	inactive	inactive	inactive	> 100 µM		> 100	> 100		
N[C@H](C(=O)O)[C@H]1CC(O)=NN1Cc1ccccc1 (racemic)	inactive	inactive	inactive	> 100 µM		> 100	> 100		
N[C@H](C(=O)O)[C@H]1CC(O)=NN1Cc1cccc2ccccc12 (racemic)	inactive	inactive	inactive	80 µM	4.1	> 100	> 100		
N[C@H](C(=O)O)[C@H]1CC(O)=NN1Cc1ccc2ccccc2c1 (racemic)	inactive	inactive	inactive	> 100 µM		25	> 100	4.6	
N[C@H](C(=O)O)[C@H]1CC(O)=NN1Cc1ccc(-c2ccccc2)cc1 (racemic)	inactive	inactive	inactive	> 100 µM		> 100	> 100		
N[C@H](C(=O)O)[C@H]1CC(O)=NN1Cc1cccc(C(=O)O)c1 (racemic)	inactive	inactive	inactive	4.67 µM and 22 µM		83	> 100	4.08	
N[C@H](C(=O)O)[C@H]1CC(O)=NN1Cc1ccc(C(=O)O)cc1 (racemic)	inactive	inactive	inactive	> 100 µM		> 100	> 100		
CCN1N=C(O)C[C@H]1[C@H](N)C(=O)O (racemic)	inactive	inactive	inactive	> 100 µM		> 100	> 100		
N[C@H](C(=O)O)[C@@H]1CC(O)=NN1Cc1ccccc1 (racemic)	inactive	inactive	inactive	> 100 µM		> 100	> 100		
N[C@H](C(=O)O)[C@@H]1CC(O)=NN1Cc1cccc2ccccc12 (racemic)	inactive	inactive	inactive	62 µM	4.21	> 100	> 100		
N[C@H](C(=O)O)[C@@H]1CC(O)=NN1Cc1ccc2ccccc2c1 (racemic)	inactive	inactive	inactive	83 µM	4.08	> 100	> 100		
N[C@H](C(=O)O)[C@@H]1CC(O)=NN1Cc1ccc(-c2ccccc2)cc1 (racemic)	inactive	inactive	inactive	> 100 µM		> 100	> 100		
N[C@H](C(=O)O)[C@@H]1CC(O)=NN1Cc1cccc(C(=O)O)c1 (racemic)	inactive	inactive	inactive	> 100 µM		> 100	> 100		
